PMC4999502, “A rheostat mechanism governs the bifurcation of carbon flux in mycobacteria” (Nature Communications, 2016)

What was measured:
[1] = molecular target: T1, M. smegmatis ICD (MsmICD) (Mycolicibacterium smegmatis, UniProt A0QSZ3); assay: X-ray crystal structure, […] Å; assay type: binding; settings: Mn2+ bound; crystals pre-incubated with glyoxylate, MnCl2, isocitrate and NADP+; pH 7.5
T1 construct: gene MSMEG_1654; full ORF, 743 AA; pET-28a(+), C-terminal TEV site and 6-His tag, tag removed by TEV; E. coli BL21(DE3); text says mycobacterial ICD2 forms dimers in solution

[2] = molecular target: T1, M. smegmatis ICD (MsmICD); assay: isothermal titration calorimetry; assay type: binding; settings: pH 7.5, 25 °C, 10 mM Tris, 10 mM EDTA, 2.5 mM MgCl2; putative allosteric activator; 1:1 single-site fit
From the text: isothermal titration calorimetry on M. smegmatis ICD (MsmICD)

Row | SMILES | X-ray crystal structure, 2.8 Å [1] | K (M^-1) [2]
1 | O=C(O)C[C@H](C(=O)O)[C@@H](O)C(=O)O (racemic) [isocitrate] | We determined the structure of MsmICD bound to isocitrate and manganese | –
2 | O=CC(=O)O [glyoxylate] | – | 1.10e^6±4.21e^5
